Experimental findings from patent US10961231B2, “NTCP inhibitors” (National Institute of Biological Sciences, Beijing, priority 2018, dated 2021) are described below.

The term IC50 denotes the concentration at which inhibition is half-maximal. Lower therefore signals greater potency.

The target in the first test is T1, NTCP (Homo sapiens, UniProt Q14973).
T1 sequence (Q14973 1-349): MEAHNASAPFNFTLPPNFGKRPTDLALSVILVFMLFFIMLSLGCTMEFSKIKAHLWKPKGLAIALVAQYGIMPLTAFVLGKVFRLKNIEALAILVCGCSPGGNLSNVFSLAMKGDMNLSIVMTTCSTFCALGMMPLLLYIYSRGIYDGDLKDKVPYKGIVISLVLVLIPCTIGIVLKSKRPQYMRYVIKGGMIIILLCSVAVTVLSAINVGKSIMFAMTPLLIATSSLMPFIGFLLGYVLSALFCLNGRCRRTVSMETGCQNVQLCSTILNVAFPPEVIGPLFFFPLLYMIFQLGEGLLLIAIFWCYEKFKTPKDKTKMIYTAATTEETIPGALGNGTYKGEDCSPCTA
Description: [3H]-TCA uptake assay (NTCP inhibition). The class given is cell-based. To be noted: IC50, given as a range, marked * (asterisk not explained). In short, it runs like this: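 PTH and HepG2-NTCP cells kept 24 h in PMM to induce NTCP, then exposed 2 h to test compounds or DMSO. Uptake of 1 μM [3H]-taurocholate in Na+ Ringer's buffer (145 mM Na) ran 15 min at 37° C. Cells washed, lysed in 1% Triton X-100, and radioactivity counted by liquid scintillation.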
`CCC1NC(=O)C(C2OC(Oc3cccc(O)c3)CC2C)N(C)C(=O)C(C(C)C)N(C)C(=O)C(CC(C)C)N(C)C(=O)C(CC(C)C)N(C)C(=O)C(C)NC(=O)C(C)NC(=O)C(CC(C)C)N(C)C(=O)C(C(C)C)NC(=O)C(CC(C)C)N(C)C(=O)CN(C)C1=O` (stereo not shown) [Compound 25A-o]: the IC50 fell in the range of 1000 to 100000 nM.

Molecule `CCC1NC(=O)C(C2OC(Oc3ccc(OC)cc3)CC2C)N(C)C(=O)C(C(C)C)N(C)C(=O)C(CC(C)C)N(C)C(=O)C(CC(C)C)N(C)C(=O)C(C)NC(=O)C(C)NC(=O)C(CC(C)C)N(C)C(=O)C(C(C)C)NC(=O)C(CC(C)C)N(C)C(=O)CN(C)C1=O` (stereo not shown) [Compound 26A-o] displayed an IC50 of 1000 to 100000 nM.

Consider `CCOc1ccc(OC2CC(C)C(C3C(=O)NC(CC)C(=O)N(C)CC(=O)N(C)C(CC(C)C)C(=O)NC(C(C)C)C(=O)N(C)C(CC(C)C)C(=O)NC(C)C(=O)NC(C)C(=O)N(C)C(CC(C)C)C(=O)N(C)C(CC(C)C)C(=O)N(C)C(C(C)C)C(=O)N3C)O2)cc1` (stereo not shown) [Compound 27A-o], for which the IC50 lay in the range of 1000 to 100000 nM.

Turning to `CCC1NC(=O)C(C2OC(Oc3cccc(OC)c3)CC2C)N(C)C(=O)C(C(C)C)N(C)C(=O)C(CC(C)C)N(C)C(=O)C(CC(C)C)N(C)C(=O)C(C)NC(=O)C(C)NC(=O)C(CC(C)C)N(C)C(=O)C(C(C)C)NC(=O)C(CC(C)C)N(C)C(=O)CN(C)C1=O` (stereo not shown) [Compound 28A-o], the concentration for half-maximal inhibition (IC50) lay within 1000 to 100000 nM.

`CCOc1cccc(OC2CC(C)C(C3C(=O)NC(CC)C(=O)N(C)CC(=O)N(C)C(CC(C)C)C(=O)NC(C(C)C)C(=O)N(C)C(CC(C)C)C(=O)NC(C)C(=O)NC(C)C(=O)N(C)C(CC(C)C)C(=O)N(C)C(CC(C)C)C(=O)N(C)C(C(C)C)C(=O)N3C)O2)c1` (stereo not shown) [Compound 29A-o] came in with an IC50 of 1000 to 100000 nM.

Molecule `CCC1NC(=O)C(C2OC(Oc3cccc(OC(C)C)c3)CC2C)N(C)C(=O)C(C(C)C)N(C)C(=O)C(CC(C)C)N(C)C(=O)C(CC(C)C)N(C)C(=O)C(C)NC(=O)C(C)NC(=O)C(CC(C)C)N(C)C(=O)C(C(C)C)NC(=O)C(CC(C)C)N(C)C(=O)CN(C)C1=O` (stereo not shown) [Compound 30A-6] showed an IC50 of 1000 to 100000 nM.

In turn, `CCCOc1cccc(OC2CC(C)C(C3C(=O)NC(CC)C(=O)N(C)CC(=O)N(C)C(CC(C)C)C(=O)NC(C(C)C)C(=O)N(C)C(CC(C)C)C(=O)NC(C)C(=O)NC(C)C(=O)N(C)C(CC(C)C)C(=O)N(C)C(CC(C)C)C(=O)N(C)C(C(C)C)C(=O)N3C)O2)c1` (stereo not shown) [Compound 31A-o] yielded a half-inhibitory concentration (IC50) of 1000 to 100000 nM.

As to `CCC1NC(=O)C(C2OC(Oc3cccc(OCC4CC4)c3)CC2C)N(C)C(=O)C(C(C)C)N(C)C(=O)C(CC(C)C)N(C)C(=O)C(CC(C)C)N(C)C(=O)C(C)NC(=O)C(C)NC(=O)C(CC(C)C)N(C)C(=O)C(C(C)C)NC(=O)C(CC(C)C)N(C)C(=O)CN(C)C1=O` (stereo not shown) [Compound 32A-o], the IC50 is 1000 to 100000 nM.

`CCC1NC(=O)C(C2OC(Oc3cccc(OCC4CCOCC4)c3)CC2C)N(C)C(=O)C(C(C)C)N(C)C(=O)C(CC(C)C)N(C)C(=O)C(CC(C)C)N(C)C(=O)C(C)NC(=O)C(C)NC(=O)C(CC(C)C)N(C)C(=O)C(C(C)C)NC(=O)C(CC(C)C)N(C)C(=O)CN(C)C1=O` (stereo not shown) [Compound 33A-o] had a 50% inhibitory concentration (IC50) of 1000 to 100000 nM.

Turning to `CCC1NC(=O)C(C2OC(Oc3cccc(OC(C)c4ccccc4)c3)CC2C)N(C)C(=O)C(C(C)C)N(C)C(=O)C(CC(C)C)N(C)C(=O)C(CC(C)C)N(C)C(=O)C(C)NC(=O)C(C)NC(=O)C(CC(C)C)N(C)C(=O)C(C(C)C)NC(=O)C(CC(C)C)N(C)C(=O)CN(C)C1=O` (stereo not shown) [Compound 34A-o], the IC50 is 1000 to 100000 nM.

Staying with this test, now noted: given as a range, marked * (asterisk not explained).
On to `CCC1NC(=O)C(C2OC(Oc3cccc(OCc4ccc(F)cc4C)c3)CC2C)N(C)C(=O)C(C(C)C)N(C)C(=O)C(CC(C)C)N(C)C(=O)C(CC(C)C)N(C)C(=O)C(C)NC(=O)C(C)NC(=O)C(CC(C)C)N(C)C(=O)C(C(C)C)NC(=O)C(CC(C)C)N(C)C(=O)CN(C)C1=O` (stereo not shown) [Compound 24A-o], for which the IC50 lay within 1000 to 100000 nM.

The same test, now with this note: given as a range; assay not given.
For the molecule `CCC1NC(=O)C(C2OC(Sc3cccc(OCc4ccc(F)cc4C)c3)CC2C)N(C)C(=O)C(C(C)C)N(C)C(=O)C(CC(C)C)N(C)C(=O)C(CC(C)C)N(C)C(=O)C(C)NC(=O)C(C)NC(=O)C(CC(C)C)N(C)C(=O)C(C(C)C)NC(=O)C(CC(C)C)N(C)C(=O)CN(C)C1=O` [Compound 24A, [2-((2R,3R)-5-(3-(4-fluoro-2-methylbenzyloxy)phenylthio)-3-methyltetrahydrofuran-2-yl)-2-(methylamino)acetic acid]^1-cyclosporin A], the IC50 was in the range of 1 to 1000 nM.

The molecule `CCC1NC(=O)C(C2OC(Sc3cccc(O)c3)CC2C)N(C)C(=O)C(C(C)C)N(C)C(=O)C(CC(C)C)N(C)C(=O)C(CC(C)C)N(C)C(=O)C(C)NC(=O)C(C)NC(=O)C(CC(C)C)N(C)C(=O)C(C(C)C)NC(=O)C(CC(C)C)N(C)C(=O)CN(C)C1=O` [Compound 25A, [2-((2R,3R)-5-(3-hydroxyphenylthio)-3-methyltetrahydrofuran-2-yl)-2-(methylamino)acetic acid]^1-cyclosporine A] gave a 50% inhibitory concentration (IC50) of 1 to 1000 nM.

For the molecule `CCC1NC(=O)C(C2OC(Sc3ccc(OC)cc3)CC2C)N(C)C(=O)C(C(C)C)N(C)C(=O)C(CC(C)C)N(C)C(=O)C(CC(C)C)N(C)C(=O)C(C)NC(=O)C(C)NC(=O)C(CC(C)C)N(C)C(=O)C(C(C)C)NC(=O)C(CC(C)C)N(C)C(=O)CN(C)C1=O` [Compound 26A, [2-((2R,3R)-5-(4-methoxyphenylthio)-3-methyltetrahydrofuran-2-yl)-2-(methylamino)acetic acid]^1-cyclosporin A], the IC50 fell in the range of 1 to 1000 nM.

Molecule `CCOc1ccc(SC2CC(C)C(C3C(=O)NC(CC)C(=O)N(C)CC(=O)N(C)C(CC(C)C)C(=O)NC(C(C)C)C(=O)N(C)C(CC(C)C)C(=O)NC(C)C(=O)NC(C)C(=O)N(C)C(CC(C)C)C(=O)N(C)C(CC(C)C)C(=O)N(C)C(C(C)C)C(=O)N3C)O2)cc1` [Compound 27A, [2-((2R,3R)-5-(4-ethoxyphenylthio)-3-methyltetrahydrofuran-2-yl)-2-(methylamino)acetic acid]^1-cyclosporin A] gave an IC50 of 1 to 1000 nM.

The molecule `CCC1NC(=O)C(C2OC(Sc3cccc(OC)c3)CC2C)N(C)C(=O)C(C(C)C)N(C)C(=O)C(CC(C)C)N(C)C(=O)C(CC(C)C)N(C)C(=O)C(C)NC(=O)C(C)NC(=O)C(CC(C)C)N(C)C(=O)C(C(C)C)NC(=O)C(CC(C)C)N(C)C(=O)CN(C)C1=O` [Compound 28A, [2-((2R,3R)-5-(3-methoxyphenylthio)-3-methyltetrahydrofuran-2-yl)-2-(methylamino)acetic acid]^1-cyclosporin A] registered an IC50 of 1 to 1000 nM.

`CCOc1cccc(SC2CC(C)C(C3C(=O)NC(CC)C(=O)N(C)CC(=O)N(C)C(CC(C)C)C(=O)NC(C(C)C)C(=O)N(C)C(CC(C)C)C(=O)NC(C)C(=O)NC(C)C(=O)N(C)C(CC(C)C)C(=O)N(C)C(CC(C)C)C(=O)N(C)C(C(C)C)C(=O)N3C)O2)c1` [Compound 29A, [2-((2R,3R)-5-(3-ethoxyphenylthio)-3-methyltetrahydrofuran-2-yl)-2-(methylamino)acetic acid]^1-cyclosporin A] displayed an IC50 of 1 to 1000 nM.

As for `CCC1NC(=O)C(C2OC(Sc3cccc(OC(C)C)c3)CC2C)N(C)C(=O)C(C(C)C)N(C)C(=O)C(CC(C)C)N(C)C(=O)C(CC(C)C)N(C)C(=O)C(C)NC(=O)C(C)NC(=O)C(CC(C)C)N(C)C(=O)C(C(C)C)NC(=O)C(CC(C)C)N(C)C(=O)CN(C)C1=O` [Compound 30A, [2-((2R,3R)-5-(3-isopropoxyphenylthio)-3-methyltetrahydrofuran-2-yl)-2-(methylamino)acetic acid]^1-cyclosporin], the half-maximal inhibitory concentration (IC50) fell in the range of 1 to 1000 nM.

With `CCCOc1cccc(SC2CC(C)C(C3C(=O)NC(CC)C(=O)N(C)CC(=O)N(C)C(CC(C)C)C(=O)NC(C(C)C)C(=O)N(C)C(CC(C)C)C(=O)NC(C)C(=O)NC(C)C(=O)N(C)C(CC(C)C)C(=O)N(C)C(CC(C)C)C(=O)N(C)C(C(C)C)C(=O)N3C)O2)c1` [Compound 31A, [2-((2R,3R)-3-methyl-5-(3-propoxyphenylthio)tetrahydrofuran-2-yl)-2-(methylamino)acetic acid]^1-cyclosporin A], the IC50 is 1 to 1000 nM.

As to `CCC1NC(=O)C(C2OC(Sc3cccc(OCC4CC4)c3)CC2C)N(C)C(=O)C(C(C)C)N(C)C(=O)C(CC(C)C)N(C)C(=O)C(CC(C)C)N(C)C(=O)C(C)NC(=O)C(C)NC(=O)C(CC(C)C)N(C)C(=O)C(C(C)C)NC(=O)C(CC(C)C)N(C)C(=O)CN(C)C1=O` [Compound 32A, [2-((2R,3R)-5-(3-(cyclopropylmethoxy)phenylthio)-3-methyltetrahydrofuran-2-yl)-2-(methylamino)acetic acid]^1-cyclosporin A], the IC50 was 1 to 1000 nM.

Molecule `CCC1NC(=O)C(C2OC(Sc3cccc(OCC4CCOCC4)c3)CC2C)N(C)C(=O)C(C(C)C)N(C)C(=O)C(CC(C)C)N(C)C(=O)C(CC(C)C)N(C)C(=O)C(C)NC(=O)C(C)NC(=O)C(CC(C)C)N(C)C(=O)C(C(C)C)NC(=O)C(CC(C)C)N(C)C(=O)CN(C)C1=O` [Compound 33A, [2-((2R,3R)-3-methyl-5-(3-((tetrahydro-2H-pyran-4-yl)methoxy)phenylthio)tetrahydrofuran-2-yl)-2-(methylamino)acetic acid]^1-cyclosporin A] registered an IC50 of 1 to 1000 nM.

Consider `CCC1NC(=O)C(C2OC(Sc3cccc(OC(C)c4ccccc4)c3)CC2C)N(C)C(=O)C(C(C)C)N(C)C(=O)C(CC(C)C)N(C)C(=O)C(CC(C)C)N(C)C(=O)C(C)NC(=O)C(C)NC(=O)C(CC(C)C)N(C)C(=O)C(C(C)C)NC(=O)C(CC(C)C)N(C)C(=O)CN(C)C1=O` [Compound 34A, [2-((2R,3R)-3-methyl-5-(3-(1-phenylethoxy)phenylthio)tetrahydrofuran-2-yl)-2-(methylamino)acetic acid]^1-cyclosporin A], for which the IC50 was 1 to 1000 nM.
